From PubChem BioAssay AID248 (DTP/NCI, 2004)
Several values for one entry are separate records, joined by “and”; a condition that tells them apart may be missing. Identical values can stand only once. Toxic doses and inconclusive results are not listed. Cut-off read from the data, not from the text of the source: active = T/C of 150% or more; inactive = T/C below 125%.

Tested on: L1210 leukemia ip in BDF1 mice, survival T/C
Assay: NCI In Vivo Anticancer Drug Screen. Data for tumor model L1210 Leukemia (intraperitoneal) in B6D2F1 (BDF1) mice
Details: endpoint: mean survival time, higher = longer survival
Method in brief: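 In this screen, tumor-bearing mice given compound are compared to those given vehicle, and their survival values are reported as a treated-to-control quotient.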

[1] = dose: 50.0 mg/kg/injection, schedule: Q01DX001 (ip), vehicle: saline
[2] = dose: 100.0 mg/kg/injection, schedule: Q01DX001 (ip), vehicle: saline
[3] = dose: 200.0 mg/kg/injection, schedule: Q01DX001 (ip), vehicle: saline
[4] = dose: 50.0 mg/kg/injection, schedule: Q01DX009 (ip), vehicle: saline
[5] = dose: 100.0 mg/kg/injection, schedule: Q01DX009 (ip), vehicle: saline
[6] = dose: 12.5 mg/kg/injection, schedule: Q04DX003 (ip), vehicle: Klucel (hydroxypropylcellulose) (HPC)
[7] = dose: 400.0 mg/kg/injection, schedule: Q01DX001 (ip), vehicle: saline
[8] = dose: 100.0 mg/kg/injection, schedule: Q01DX009 (ip), vehicle: saline with Tween-80
[9] = dose: 200.0 mg/kg/injection, schedule: Q01DX009 (ip), vehicle: saline with Tween-80
[10] = dose: 100.0 mg/kg/injection, schedule: Q04DX003 (ip), vehicle: Klucel (hydroxypropylcellulose) (HPC)
[11] = dose: 200.0 mg/kg/injection, schedule: Q04DX003 (ip), vehicle: Klucel (hydroxypropylcellulose) (HPC)
[12] = dose: 400.0 mg/kg/injection, schedule: Q04DX003 (ip), vehicle: Klucel (hydroxypropylcellulose) (HPC)
[13] = dose: 25.0 mg/kg/injection, schedule: Q04DX003 (ip), vehicle: Klucel (hydroxypropylcellulose) (HPC)
[14] = dose: 50.0 mg/kg/injection, schedule: Q04DX003 (ip), vehicle: Klucel (hydroxypropylcellulose) (HPC)

Measured: T/C

O=C(CCl)Nc1cc(Cl)ccc1N1CCCCC1
inactive: dose: 100.0 mg/kg/injection, schedule: Q01DX009 (ip), vehicle: acetone 100 % of control | dose: 200.0 mg/kg/injection, schedule: Q01DX009 (ip), vehicle: acetone 91 % of control | dose: 400.0 mg/kg/injection, schedule: Q01DX009 (ip), vehicle: acetone 91 % of control

c1ccc(CCc2nccc3ccccc23)cc1
inactive: dose: 75.0 mg/kg/injection, schedule: Q01DX001 (ip), vehicle: saline 96 % of control | dose: 150.0 mg/kg/injection, schedule: Q01DX001 (ip), vehicle: saline 97 % of control

O=[N+]([O-])c1cc2c(nc3ccccn32)c2ccccc12
inactive: [1] 97 % of control | [2] 96 % of control | [3] 97 % of control

CN(C)C(=O)/N=N/C(=O)N(C)C
inactive: dose: 25.0 mg/kg/injection, schedule: Q01DX009 (ip), vehicle: saline 97 % of control | dose: 25.0 mg/kg/injection, schedule: Q04DX003 (ip), vehicle: saline 96 % of control | [4] 106 % of control | dose: 50.0 mg/kg/injection, schedule: Q04DX003 (ip), vehicle: saline 102 % of control | [5] 101 % of control | dose: 100.0 mg/kg/injection, schedule: Q04DX003 (ip), vehicle: saline 102 % of control

C=C1N2CCC(CC2)C1(O)c1ccccc1 (stereo not given)
inactive: dose: 3.13 mg/kg/injection, schedule: Q04DX003 (ip), vehicle: saline 92 % of control | dose: 6.25 mg/kg/injection, schedule: Q04DX003 (ip), vehicle: saline 103 % of control | [6] 103 % of control | dose: 12.5 mg/kg/injection, schedule: Q04DX003 (ip), vehicle: saline 97 % of control

CC(c1ccccc1)n1cnc2c(Cl)ncnc21 (stereo not given)
inactive: [2] 98 % of control | [3] 101 % of control | [7] 110 % of control

Cc1cc(NS(=O)(=O)c2ccc(N=Nc3c(N)n(C)c(=O)n(C)c3=O)cc2)nc(C)n1
inactive: dose: 100.0 mg/kg/injection, schedule: Q01DX001 (ip), vehicle: carboxymethylcellulose (CMC) 89 % of control | dose: 200.0 mg/kg/injection, schedule: Q01DX001 (ip), vehicle: carboxymethylcellulose (CMC) 104 % of control | dose: 400.0 mg/kg/injection, schedule: Q01DX001 (ip), vehicle: carboxymethylcellulose (CMC) 101 % of control

O=C(Nc1ccccc1)NC(C(=O)O)(c1ccccc1)c1ccccc1
inactive: dose: 50.0 mg/kg/injection, schedule: Q01DX001 (ip), vehicle: other 97 % of control | dose: 100.0 mg/kg/injection, schedule: Q01DX001 (ip), vehicle: other 89 % of control | dose: 200.0 mg/kg/injection, schedule: Q01DX001 (ip), vehicle: other 92 % of control

CCOC(=O)Cc1cnc(SC)nc1Cl
inactive: dose: 50.0 mg/kg/injection, schedule: Q01DX009 (ip), vehicle: saline with Tween-80 98 % of control | [8] 91 % of control | dose: 100.0 mg/kg/injection, schedule: Q04DX003 (ip), vehicle: saline with Tween-80 92 % of control | [9] 88 % of control | dose: 200.0 mg/kg/injection, schedule: Q04DX003 (ip), vehicle: saline with Tween-80 92 % of control

Cc1cccc2c1SCCC2=O
inactive: [2] 92 % of control | [3] 92 % of control | [7] 89 % of control

COc1ccc(OCC2CO2)cc1 (stereo not given)
inactive: dose: 100.0 mg/kg/injection, schedule: Q01DX009 (ip), vehicle: Klucel (hydroxypropylcellulose) (HPC) 103 % of control | [10] 100 % of control | dose: 200.0 mg/kg/injection, schedule: Q01DX009 (ip), vehicle: Klucel (hydroxypropylcellulose) (HPC) 103 % of control | [11] 96 % of control | dose: 400.0 mg/kg/injection, schedule: Q01DX009 (ip), vehicle: Klucel (hydroxypropylcellulose) (HPC) 102 % of control | [12] 102 % of control

S=P(c1ccccc1)(c1ccccc1)N1CCCCC1
inactive: dose: 100.0 mg/kg/injection, schedule: Q04DX002 (ip), vehicle: saline with Tween-80 96 % of control | dose: 200.0 mg/kg/injection, schedule: Q04DX002 (ip), vehicle: saline with Tween-80 93 % of control | dose: 400.0 mg/kg/injection, schedule: Q04DX002 (ip), vehicle: saline with Tween-80 93 % of control

Cc1ccc(/C(C#N)=C2C=C(Br)/C(=N\O)C=C/2Cl)cc1
inactive: dose: 150.0 mg/kg/injection, schedule: Q01DX009 (ip), vehicle: saline with Tween-80 97 % of control | dose: 225.0 mg/kg/injection, schedule: Q01DX009 (ip), vehicle: saline with Tween-80 90 % of control

S=C(Nc1ccc(Cl)cc1)Nc1ccc(Cl)cc1
inactive: [10] 108 % of control | [11] 103 % of control | [12] 97 % of control

CC(=O)Nc1ccc(/C=C2N=C(/C=C/c3ccccc3)OC\2=O)cc1
inactive: dose: 100.0 mg/kg/injection, schedule: Q04DX002 (ip), vehicle: Klucel (hydroxypropylcellulose) (HPC) 94 % of control | dose: 200.0 mg/kg/injection, schedule: Q04DX002 (ip), vehicle: Klucel (hydroxypropylcellulose) (HPC) 105 % of control | dose: 400.0 mg/kg/injection, schedule: Q04DX002 (ip), vehicle: Klucel (hydroxypropylcellulose) (HPC) 90 % of control

CCCCCCCCCCCCCCCCCCCC(=O)CCl
inactive: dose: 100.0 mg/kg/injection, schedule: Q04DX002 (sc), vehicle: olive oil, sesame oil, peanut oil 104 % of control | dose: 200.0 mg/kg/injection, schedule: Q04DX002 (sc), vehicle: olive oil, sesame oil, peanut oil 100 % of control | dose: 400.0 mg/kg/injection, schedule: Q04DX002 (sc), vehicle: olive oil, sesame oil, peanut oil 107 % of control

CCN(CC)CCN(CC)CCN(CC)CC
inactive: [5] 94 % of control | dose: 200.0 mg/kg/injection, schedule: Q01DX009 (ip), vehicle: saline 115 % of control

CCOC(=O)CNC(=O)NCc1ccccc1
inactive: [8] 106 % of control | [9] 102 % of control | dose: 400.0 mg/kg/injection, schedule: Q01DX009 (ip), vehicle: saline with Tween-80 105 % of control

CC(C)(Cc1ccc(F)cc1)NCc1ccccc1
inactive: dose: 25.0 mg/kg/injection, schedule: Q01DX009 (ip), vehicle: Klucel (hydroxypropylcellulose) (HPC) 92 % of control | [13] 101 % of control | dose: 50.0 mg/kg/injection, schedule: Q01DX009 (ip), vehicle: Klucel (hydroxypropylcellulose) (HPC) 95 % of control | [14] 103 % of control | [10] 88 % of control and 92 % of control

CN(C)P(N(C)C)N(C)C
inactive: [1] 104 % of control | [2] 95 % of control | [3] 93 % of control | [7] 101 % of control

COc1cc2c(c(OC)c1OC)-c1ccc(SC)c(=O)cc1[C@@H](NC1OC(CO)C(O)C(O)C1O)CC2 (stereo not given in full)
inactive: dose: 25.0 mg/kg/injection, schedule: Q01DX005 (ip), vehicle: saline 102 % of control | dose: 75.0 mg/kg/injection, schedule: Q01DX009 (ip), vehicle: saline 95 % of control | dose: 150.0 mg/kg/injection, schedule: Q01DX005 (ip), vehicle: saline 120 % of control
active: [4] 150 % of control

CCCCCO/N=C\c1c2c(O)c3c(O)c(C)c4c(c3c1O)C(=O)C(C)(O/C=C\C(OC)C(C)C(OC(C)=O)C(C)C(O)C(C)C(O)C(C)/C=C\C=C(\C)C(=O)N2)O4 (stereo not given)
inactive: dose: 50.0 mg/kg/injection, schedule: Q04DX003 (ip), vehicle: water 100 % of control | dose: 100.0 mg/kg/injection, schedule: Q04DX003 (ip), vehicle: water 94 % of control | dose: 200.0 mg/kg/injection, schedule: Q04DX003 (ip), vehicle: water 100 % of control | dose: 400.0 mg/kg/injection, schedule: Q04DX003 (ip), vehicle: water 102 % of control

CC(C)NC(C)c1c[nH]c2ccccc12 (stereo not given)
inactive: [6] 101 % of control | [13] 97 % of control | [14] 103 % of control
